Experiments:
Type in all cases: binding
P2RY2 = molecular target: T1, P2RY2 (Homo sapiens, UniProt P41231); experiment: NanoBRET screen HiBiT-P2RY2 in HEK293; details: P2RY2
T1 construct: purchased Promega (in-house HiBiT-GPCR construct library, NanoBRET)
Experimental: (§1) Each tracer candidate was screened across the entire library of HiBiT-GPCR constructs using NanoBRET as the detection modality. As depicted in Figure 4A, the specificity of interactions was evaluated through decrease in BRET due to competitive displacement of a bound tracer by excess parental compound. Each tracer was analyzed for binding to each HiBiT-GPCR fusion in the absence and in the presence of competing parental compound. Briefly, HEK293 cells were transfected with HiBiT-GPCR constructs diluted into promoterless DNA to reduce expression and maximize translocation to the cell surface. Each tracer candidate was then screened at concentrations of 1 μM and 0.1 μM across cells expressing these fusions. Cells were treated for 1.5 h with tracer either alone or in the presence of 20 μM competing parental compound (i.e., control). BRET was measured upon addition of purified LgBiT and subsequent complementation with HiBiT genetically fused to a GPCR. The specificity of interactions was assessed through a decrease in BRET signal due to competitive displacement of the bound tracer. To further gauge the robustness of these interactions, the fold response over the control (i.e., BRETtracer/BRETcontrol) was calculated. We chose a 1.5-fold response, which translates to ≥7-fold signal over noise as the minimal threshold required to score an interaction as positive. […]. Below we highlight the screening results obtained for our exemplary fluorescent tracers based on Clozapine, Amitriptyline and AZD1283.
(§2) HiBiT-GPCR DNA constructs were diluted in 10 mM Tris pH 8 to a final concentration of 0.01 μg/μL, arrayed in 96-well plates and stored at −20 °C. For transfection, HEK293 cells were suspended in Opti-MEM (without phenol red) supplemented with 2% fetal bovine serum (Seradigm) and 100 units/mL penicillin–streptomycin (Gibco) at a final concentration of 220,000 cells/mL and dispensed into white 96-well plates at 90 μL/well. Subsequent transfections and screens were carried using an Agilent Bravo Automated Liquid Handling Platform. First, the 96-well HiBiT DNA arrays were diluted 25-fold in Opti-MEM (without serum or phenol red) to a final concentration of 0.0004 μg/μL and 20 μL of the diluted DNAs were transferred into new 96-well plates. Next, promoterless carrier DNA (1 μg/μL) was diluted 25-fold (0.04 μg/μL) and then dispensed into the diluted arrays at 20 μL/well. Following brief mixing, Viafect transfection reagent (Promega) diluted 16-fold into Opti-MEM was dispensed into the plates at 40 μL/well. After mixing by pipetting, plates were incubated for 10 min on the pipetting station deck. The DNA-transfection reagent complexes were then added to plates containing cells. To facilitate the screen, 10 μL of DNA-transfection reagent complexes were added in duplicates to the top 4 and bottom 4 rows, resulting in two identical 48-well arrays per plate. Plates with transfected cells were incubated for 18–20 h at 37 °C/5% CO2. A screen of each tracer across the entire library using two different concentrations requires duplicate plates of transfected cells. Depending on the number of tracers being screened, transfections can be scaled up using the same ratios. The next day, for each tracer, four 20× screening solutions in tracer dilution buffer (Promega) were prepared: two duplicates at final concentration of 20 μM and two duplicates at a final concentration of 2 μM. A competing unmodified compound was added to one of each duplicate at a final concentration of 400 μM. The four resulting solutions were diluted 4-fold in Opti-MEM without serum or phenol red to generate 5× solutions (5 µM and 0.5 µM tracer +/− 100 μM competing compound). To screen the library, a BioTek MultiFlo FX liquid dispenser was used to dispense 22.5 µL of tracer solution to the top 4 rows and 22.5 µL tracer + competing compound solution to the 4 bottom rows. Plates were briefly mixed on an orbital shaker and incubated for 1.5 h at room temperature. […]

HCRTR2 = molecular target: T2, HCRTR2 (Homo sapiens, UniProt O43614); experiment: NanoBRET screen HiBiT-HCRTR2 in HEK293; details: HCRTR2
T2 construct: purchased Promega (in-house HiBiT-GPCR construct library, NanoBRET)
T2 sequence (O43614 1-444): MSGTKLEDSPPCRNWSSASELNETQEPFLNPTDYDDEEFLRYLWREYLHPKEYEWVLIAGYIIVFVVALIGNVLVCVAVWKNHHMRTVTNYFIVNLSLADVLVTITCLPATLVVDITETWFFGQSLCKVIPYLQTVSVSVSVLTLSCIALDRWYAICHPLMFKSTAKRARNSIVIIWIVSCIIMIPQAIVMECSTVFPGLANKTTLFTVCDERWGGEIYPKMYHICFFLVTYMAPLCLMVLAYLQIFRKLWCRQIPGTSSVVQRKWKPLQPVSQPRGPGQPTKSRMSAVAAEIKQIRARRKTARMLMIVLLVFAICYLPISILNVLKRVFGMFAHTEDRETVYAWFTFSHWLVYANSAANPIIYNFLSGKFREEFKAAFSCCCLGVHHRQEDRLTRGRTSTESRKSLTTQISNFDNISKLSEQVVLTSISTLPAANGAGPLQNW
Experimental: as §1, §2

HTR5A = molecular target: T3, HTR5A (Homo sapiens, UniProt P47898); experiment: NanoBRET screen HiBiT-HTR5A in HEK293; details: HTR5A
T3 construct: purchased Promega (in-house HiBiT-GPCR construct library, NanoBRET)
T3 sequence (P47898 whole entry): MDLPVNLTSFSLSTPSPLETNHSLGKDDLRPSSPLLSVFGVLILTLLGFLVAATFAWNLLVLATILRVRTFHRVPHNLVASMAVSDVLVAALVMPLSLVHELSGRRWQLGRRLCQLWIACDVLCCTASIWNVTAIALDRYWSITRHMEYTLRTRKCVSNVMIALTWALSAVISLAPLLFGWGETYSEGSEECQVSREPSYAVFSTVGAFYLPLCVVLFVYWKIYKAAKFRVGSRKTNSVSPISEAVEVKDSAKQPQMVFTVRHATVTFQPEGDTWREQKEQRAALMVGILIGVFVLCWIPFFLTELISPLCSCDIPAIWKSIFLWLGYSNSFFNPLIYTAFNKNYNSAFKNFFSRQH
Experimental: as §1, §2

CCR1 = molecular target: T4, CCR1 (Homo sapiens, UniProt P32246); experiment: NanoBRET screen HiBiT-CCR1 in HEK293; details: CCR1
T4 construct: purchased Promega (in-house HiBiT-GPCR construct library, NanoBRET)
T4 sequence (P32246 1-355): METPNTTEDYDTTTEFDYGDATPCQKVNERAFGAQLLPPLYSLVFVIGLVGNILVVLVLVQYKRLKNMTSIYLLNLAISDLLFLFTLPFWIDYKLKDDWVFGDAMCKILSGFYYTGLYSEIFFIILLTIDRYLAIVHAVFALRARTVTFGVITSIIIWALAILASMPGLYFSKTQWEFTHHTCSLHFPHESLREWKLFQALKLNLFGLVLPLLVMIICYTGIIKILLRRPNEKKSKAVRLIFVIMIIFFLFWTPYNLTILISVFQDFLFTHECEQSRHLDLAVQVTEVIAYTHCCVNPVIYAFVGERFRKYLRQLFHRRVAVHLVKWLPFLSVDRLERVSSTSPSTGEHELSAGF
Experimental: as §1, §2

F2RL1 = molecular target: T5, F2RL1 (Homo sapiens, UniProt P55085); experiment: NanoBRET screen HiBiT-F2RL1 in HEK293; details: F2RL1
T5 construct: purchased Promega (in-house HiBiT-GPCR construct library, NanoBRET)
T5 sequence (P55085 26-397): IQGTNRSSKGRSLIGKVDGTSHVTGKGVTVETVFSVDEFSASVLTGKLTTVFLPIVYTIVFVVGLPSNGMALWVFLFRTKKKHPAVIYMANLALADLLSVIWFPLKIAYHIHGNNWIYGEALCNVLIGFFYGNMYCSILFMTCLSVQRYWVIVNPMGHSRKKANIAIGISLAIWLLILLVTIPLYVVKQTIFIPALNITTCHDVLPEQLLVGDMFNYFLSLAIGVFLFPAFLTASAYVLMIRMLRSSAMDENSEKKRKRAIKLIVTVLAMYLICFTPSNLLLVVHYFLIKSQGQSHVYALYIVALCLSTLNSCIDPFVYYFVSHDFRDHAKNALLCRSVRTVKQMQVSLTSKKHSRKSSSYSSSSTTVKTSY
Experimental: as §1, §2

T1 sequence (P41231 whole entry): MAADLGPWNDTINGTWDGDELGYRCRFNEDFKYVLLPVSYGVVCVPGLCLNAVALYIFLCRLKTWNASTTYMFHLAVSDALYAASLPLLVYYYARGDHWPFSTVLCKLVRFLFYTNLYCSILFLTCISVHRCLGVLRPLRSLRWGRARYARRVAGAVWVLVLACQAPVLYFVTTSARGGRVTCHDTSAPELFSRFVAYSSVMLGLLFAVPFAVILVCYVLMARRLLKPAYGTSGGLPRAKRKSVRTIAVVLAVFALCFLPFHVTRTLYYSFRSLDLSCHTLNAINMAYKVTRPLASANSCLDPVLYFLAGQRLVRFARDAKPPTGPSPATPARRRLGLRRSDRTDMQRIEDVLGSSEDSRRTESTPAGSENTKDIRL

SMILES | NanoBRET Fold Response (P2RY2; tracer 0.1μM) | NanoBRET Fold Response (P2RY2; tracer 1μM) | NanoBRET Fold Response (HCRTR2; tracer 0.1μM) | NanoBRET Fold Response (HCRTR2; tracer 1μM) | NanoBRET Fold Response (HTR5A; tracer 0.1μM) | NanoBRET Fold Response (HTR5A; tracer 1μM) | NanoBRET Fold Response (CCR1; tracer 0.1μM) | NanoBRET Fold Response (CCR1; tracer 1μM) | NanoBRET Fold Response (F2RL1; tracer 0.1μM) | NanoBRET Fold Response (F2RL1; tracer 1μM) | other results
O=C(CCOCCOCCOCCOCCNC(=O)CCc1ccc2n1[B-](F)(F)[N+]1=C(c3ccc[nH]3)C=CC1=C2)NCCCN1CCN(C2=Nc3cc(Cl)ccc3Nc3ccccc32)CC1 [Clozapine-a-2-NB590] | – | – | – | – | – | – | – | – | – | – | NanoBRET Fold Response (P2RY2; 0.1μM tracer): 1.12; NanoBRET Fold Response (P2RY2; 1μM tracer): 0.97; NanoBRET Fold Response (HCRTR2; 0.1μM tracer): 1.05; NanoBRET Fold Response (HCRTR2; 1μM tracer): 1.16; NanoBRET Fold Response (HTR5A; 0.1μM tracer): 1.11; NanoBRET Fold Response (HTR5A; 1μM tracer): 1.29; NanoBRET Fold Response (CCR1; 0.1μM tracer): 1.03; NanoBRET Fold Response (CCR1; 1μM tracer): 0.94; NanoBRET Fold Response (F2RL1; 0.1μM tracer): 0.89; NanoBRET Fold Response (F2RL1; 1μM tracer): 1.16
CCCn1c(=O)c2[nH]c(-c3ccc(OCC(=O)NCCNC(=O)CCOCCNC(=O)c4ccc(CNC(=O)CCc5ccc6n5[B-](F)(F)[N+]5=C(c7ccc[nH]7)C=CC5=C6)cc4)cc3)nc2n(CCC)c1=O [XAC-3-NB590] | 0.96 | 0.95 | 1.06 | 0.97 | 1.12 | 0.97 | 0.83 | 1.09 | 1.04 | 0.97 | –
O=C(CCc1ccc2n1[B-](F)(F)[N+]1=C(c3ccc[nH]3)C=CC1=C2)NCc1ccc(C(=O)NCCOCCOCCNCC(O)COc2cccc3ccccc23)cc1 (centres unmarked) [Propranolol-3-NB590] | – | – | – | – | – | – | – | – | – | – | NanoBRET Fold Response (P2RY2; 0.1μM): 1.07; NanoBRET Fold Response (P2RY2; 1μM): 1.03; NanoBRET Fold Response (HCRTR2; 0.1μM): 1.09; NanoBRET Fold Response (HCRTR2; 1μM): 1.00; NanoBRET Fold Response (HTR5A; 0.1μM): 1.10; NanoBRET Fold Response (HTR5A; 1μM): 1.03; NanoBRET Fold Response (CCR1; 0.1μM): 1.03; NanoBRET Fold Response (CCR1; 1μM): 0.97; NanoBRET Fold Response (F2RL1; 0.1μM): 1.05; NanoBRET Fold Response (F2RL1; 1μM): 1.07
O=C(CCc1ccc2n1[B-](F)(F)[N+]1=C(c3ccc[nH]3)C=CC1=C2)NCc1ccc(C(=O)NCCOCCC(=O)N[C@@H]2CC[C@@]3(O)[C@H]4Cc5ccc(O)c6c5[C@@]3(CCN4CC3CC3)[C@H]2O6)cc1 [Naltrexone-3-NB590] | 0.90 | 1.10 | 1.04 | 1.01 | 0.69 | 0.98 | 1.03 | 0.66 | 0.79 | 0.91 | –
N#CN=C(NCCCOc1cccc(CN2CCCCC2)c1)NCCNC(=O)CCOCCOCCOCCOCCNC(=O)CCc1ccc2n1[B-](F)(F)[N+]1=C(c3ccc[nH]3)C=CC1=C2 [Aminopotentidine-2-NB590] | 1.01 | 1.00 | 1.01 | 0.97 | 1.00 | 0.90 | 0.95 | 1.03 | 1.03 | 0.99 | –
